Key:
[1] = target: T1, Transient receptor potential cation channel subfamily V member 6 (Homo sapiens, UniProt Q9H1D0); assay: Inhibition of TRPV6 (unknown origin) transfected in HEK293 cells assessed as reduction in TRPV6-induced Cd2+ influx
T1 sequence (Q9H1D0 whole entry): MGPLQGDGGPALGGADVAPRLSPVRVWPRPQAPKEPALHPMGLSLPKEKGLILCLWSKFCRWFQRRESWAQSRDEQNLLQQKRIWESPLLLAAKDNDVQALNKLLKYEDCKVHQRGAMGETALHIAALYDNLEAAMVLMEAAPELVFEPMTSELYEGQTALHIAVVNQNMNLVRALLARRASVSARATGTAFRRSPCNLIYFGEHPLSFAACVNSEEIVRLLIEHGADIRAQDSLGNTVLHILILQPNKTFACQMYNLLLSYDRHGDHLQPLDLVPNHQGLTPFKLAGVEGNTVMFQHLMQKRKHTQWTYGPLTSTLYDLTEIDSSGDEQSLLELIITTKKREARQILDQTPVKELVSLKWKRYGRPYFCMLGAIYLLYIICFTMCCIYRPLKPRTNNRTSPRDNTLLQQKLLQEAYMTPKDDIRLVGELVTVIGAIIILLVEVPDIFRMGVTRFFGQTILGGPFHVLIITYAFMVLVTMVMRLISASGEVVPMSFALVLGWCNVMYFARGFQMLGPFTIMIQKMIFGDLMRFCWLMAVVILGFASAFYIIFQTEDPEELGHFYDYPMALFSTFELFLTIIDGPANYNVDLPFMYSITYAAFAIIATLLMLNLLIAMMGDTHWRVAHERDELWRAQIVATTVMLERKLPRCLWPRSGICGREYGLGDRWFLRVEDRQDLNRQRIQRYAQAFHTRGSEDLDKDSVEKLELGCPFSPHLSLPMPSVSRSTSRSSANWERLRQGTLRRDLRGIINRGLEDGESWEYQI

LNCaP = assay: Antiproliferative activity against human LNCaP cells assessed as reduction in cell viability incubated for 72 hrs by XTT assay
T47D = assay: Antiproliferative activity against human T47D cells assessed as reduction in cell viability incubated for 72 hrs by XTT assay
[2] = target: T1, Transient receptor potential cation channel subfamily V member 6; assay: Inhibition of TRPV6 (unknown origin) expressed in Sf9 cells
[3] = target: T1, Transient receptor potential cation channel subfamily V member 6; assay: Inhibition of TRPV6 (unknown origin)

SMILES	IC50 [1] [µM]	IC50 (LNCaP) [µM]	IC50 (T47D) [µM]	further results
c1ccc(COc2ccccc2CNC23CC4CC(CC(C4)C2)C3)cc1	21	–	–	–
c1ccc(C2CCC(N3CCN(Cc4ccco4)CC3)CC2)cc1 (configuration not stated)	25	–	–	–
Fc1ccc(CCNCc2ccccc2OCc2ccc(F)cc2)cc1	15	–	–	–
CN(C)c1ccc(CCN2CCC[C@@H]2CO)cc1	–	1	49.1	–
COc1ccc(CCN2CCC[C@@H]2COC(c2ccccc2)c2ccc(Cl)cc2)cc1 (some centres not stated)	–	50	220	–
CCCc1cc(O)c2c(c1)OC(C)(C)[C@@H]1C=CC(C)=C[C@@H]21	–	–	–	IC50 [2]: 9.4 µM
CN(C)c1ccc(CCN2CCC[C@@H]2COC(c2ccccc2)c2ccc(Cl)cc2)cc1 (some centres not stated)	–	0.31	44.5	–
COc1ccc(CCN2CCC[C@@H]2COC(c2ccccc2)c2ccccc2)cc1	–	61	198	–
COc1ccc(CCN2CCC[C@@H]2COCc2ccc(Cl)cc2)cc1	–	0.44	38.8	IC50 [3]: 0.44 µM
COc1cc(Br)ccc1CN1CCN(C2CCC(c3ccccc3)CC2)CC1 (configuration not stated)	26	–	–	–
c1ccc(Oc2cccc(CN3CCN(Cc4cccnc4)CC3)c2)cc1	17	–	–	–
